Data reported in publication PMC11811690 (Angewandte Chemie (International Ed. in English), 2024).
Converted amounts (≈) assume the structure as drawn. “And” between values parts separate entries of the source, which are not always exact repeats. Equal entries are not always repeated. Where two headings read alike, the source gives them in different places.

Assays:
[1] = system: M. tuberculosis H37Rv poly-g-GFP; assay: microbe, parasite or virus in culture; format: cell-based; details: Mycobacterium tuberculosis, H37RV, 240 h, read-out: IC90 Mtb H37Rv-poly-g-GFP, fluorescence read-out
[2] = system: M. tuberculosis H37Rv poly-g-GFP; assay: microbe, parasite or virus in culture; format: cell-based; details: Mycobacterium tuberculosis, 336 h, read-out: MIC Mtb H37Rv-poly-g-GFP, turbidity read-out
[3] = system: C. difficile 630; assay: microbe, parasite or virus in culture; format: cell-based, Clostridioides difficile; details: C. difficile 630, anaerobic, overnight, growth suppressed to OD600 < 0.15; for MIC: Clostridioides difficile, read-out: MIC C. difficile
[4] = system: C. crescentus pfhuA_ΔacrAB-nodT; format: cell-based; details: disk diffusion, 20 µg per disk, 24 h, 30 °C; permeable and efflux-deficient strain
[5] = system: C. crescentus pfhuA; assay: Inhibition zone (Kirby-Bauer disk diffusion), C. crescentus pfhuA; details: 20 µg per disk, 24 h, 30 °C, permeable strain
[6] = system: mutant RNAP^R89A; set-up: method as in PMID 29606590; details: transcription assay, mutant versus wild-type RNAP; cited from earlier work
[7] = biological target: T1, M. tuberculosis RNAP (Mycobacterium tuberculosis, UniProt P9WGY7+P9WGY9); assay: biochemical; details: fluorescent run-off transcription assay, triplicate, mean ± s.d.; read-out: IC50 Mtb RNAP, fluorescence read-out
T1 construct: made in house; host or cells: E. coli BL21(DE3) is stated for σA only

[8] = concentration for 90 % inhibition of fluorescence as proxy for growth inhibition, 10 days, 37 °C

Row | SMILES | IC90 [1] [µg/mL] | MIC [2] [µg/mL] | MIC [3] [µg/mL] | Inhibition zone C. crescentus pfuhAh_∆acrABnodT [4] | Inhibition zone C. crescentus pfuhAh [5] [mm2] | increase of IC50 against the mutant RNAP^R89A [6] [fold] | IC50 [7] [nM] | IC90 [1, 8] [µg/mL] | MIC C. difficile [3] [µg/mL] | MIC ([2]; 14 days, 37 °C, turbidity by eye) [µg/mL]
1 | CC[C@H]1/C=C(\C)[C@@H](O)C/C=C/C=C(\CNCc2nnc(-c3ccc(OC)c(OC)c3Cl)o2)C(=O)O[C@H]([C@@H](C)O)C/C=C(C)/C=C(\C)[C@@H]1O[C@@H]1OC(C)(C)[C@@H](OC(=O)C(C)C)[C@H](O)[C@@H]1O [compound 18] | 8 (≈ 8.73 µM) | 4 (≈ 4.36 µM) | 8 (≈ 8.73 µM) | 200 ± 19 mm2 | 54 ± 8 | – | – | – | – | –
2 | CCc1c(Cl)c(O)c(Cl)c(O)c1C(=O)O[C@H]1[C@H](O)[C@H](OC)[C@H](OC/C2=C\C=C\C[C@H](O)/C(C)=C/[C@H](CC)[C@@H](O[C@@H]3OC(C)(C)[C@@H](OC(=O)C(C)C)[C@H](O)[C@@H]3O)/C(C)=C/C(C)=C/C[C@@H]([C@@H](C)O)OC2=O)O[C@@H]1C [Fdx, fidaxomicin, reference compound] | 0.5 (≈ 0.473 µM) | 0.5 (≈ 0.473 µM) | < 0.0078 | 311 ± 4 mm2 and 311±4.0 mm2 | 126 ± 20 | > 400 | – | – | – | –
3 | CC[C@H]1/C=C(\C)[C@@H](O)C/C=C/C=C(\CNCc2nnc(-c3cc(Cl)cc(Cl)c3)o2)C(=O)O[C@H]([C@@H](C)O)C/C=C(C)/C=C(\C)[C@@H]1O[C@@H]1OC(C)(C)[C@@H](OC(=O)C(C)C)[C@H](O)[C@@H]1O [compound 21] | 8 (≈ 8.98 µM) | 2 (≈ 2.24 µM) | 4 (≈ 4.49 µM) | 73 ± 11 mm2 | – | – | – | – | – | –
4 | CC[C@H]1/C=C(\C)[C@@H](O)C/C=C/C=C(\CNc2cccc(CNC(=O)c3ccc(OC)c(OC)c3Cl)c2)C(=O)O[C@H]([C@@H](C)O)C/C=C(C)/C=C(\C)[C@@H]1O[C@@H]1OC(C)(C)[C@@H](OC(=O)C(C)C)[C@H](O)[C@@H]1O [compound 30] | – | – | > 32 | – | – | – | 620 ± 290 | 16 (≈ 16.5 µM) | – | –
5 | CC[C@H]1/C=C(\C)[C@@H](O)C/C=C/C=C(\CNCc2nnc(-c3ccccc3)o2)C(=O)O[C@H]([C@@H](C)O)C/C=C(C)/C=C(\C)[C@@H]1O[C@@H]1OC(C)(C)[C@@H](OC(=O)C(C)C)[C@H](O)[C@@H]1O [compound 16] | 4 (≈ 4.87 µM) | 4 (≈ 4.87 µM) | 4 to 8 (≈ 4.87 to 9.73 µM) | 322 ± 26 mm2 | 127 ± 13 | – | 420 ± 230 | – | – | –
6 | CC[C@H]1/C=C(\C)[C@@H](O)C/C=C/C=C(\CNc2cccc(CN)c2)C(=O)O[C@H]([C@@H](C)O)C/C=C(C)/C=C(\C)[C@@H]1O[C@@H]1OC(C)(C)[C@@H](OC(=O)C(C)C)[C@H](O)[C@@H]1O [compound 27] | – | – | > 32 | 119 ± 15 mm2 | – | – | > 100000 | 32 (≈ 41.6 µM) | – | –
7 | CC[C@H]1/C=C(\C)[C@@H](O)C/C=C/C=C(\CNc2nc3ccccc3s2)C(=O)O[C@H]([C@@H](C)O)C/C=C(C)/C=C(\C)[C@@H]1O[C@@H]1OC(C)(C)[C@@H](OC(=O)C(C)C)[C@H](O)[C@@H]1O [compound 9] | 8 (≈ 10 µM) | 4 to 8 (≈ 5.02 to 10 µM) | 2 (≈ 2.51 µM) | – | – | – | – | – | – | –
8 | CC[C@H]1/C=C(\C)[C@@H](O)C/C=C/C=C(\CNCc2nnc(-c3ccccc3)s2)C(=O)O[C@H]([C@@H](C)O)C/C=C(C)/C=C(\C)[C@@H]1O[C@@H]1OC(C)(C)[C@@H](OC(=O)C(C)C)[C@H](O)[C@@H]1O [compound 20] | 2 (≈ 2.39 µM) | 2 (≈ 2.39 µM) | – | 241 ± 40 mm2 | 108 ± 11 | – | – | – | – | –
9 | CC[C@H]1/C=C(\C)[C@@H](O)C/C=C/C=C(\CNc2nc(COc3ccccc3)cs2)C(=O)O[C@H]([C@@H](C)O)C/C=C(C)/C=C(\C)[C@@H]1O[C@@H]1OC(C)(C)[C@@H](OC(=O)C(C)C)[C@H](O)[C@@H]1O [compound 10] | 8 (≈ 9.38 µM) | 4 to 8 (≈ 4.69 to 9.38 µM) | 1 (≈ 1.17 µM) | – | – | – | 170 ± 60 | – | 1 (≈ 1.17 µM) | –
10 | CC[C@H]1/C=C(\C)[C@@H](O)C/C=C/C=C(\CNCc2nnc(-c3ccc(C(F)(F)F)cc3)o2)C(=O)O[C@H]([C@@H](C)O)C/C=C(C)/C=C(\C)[C@@H]1O[C@@H]1OC(C)(C)[C@@H](OC(=O)C(C)C)[C@H](O)[C@@H]1O [compound 23] | – | – | 4 (≈ 4.49 µM) | – | – | – | – | 8 (≈ 8.99 µM) | – | 2 (≈ 2.25 µM)
11 | CC[C@H]1/C=C(\C)[C@@H](O)C/C=C/C=C(\CNc2nccs2)C(=O)O[C@H]([C@@H](C)O)C/C=C(C)/C=C(\C)[C@@H]1O[C@@H]1OC(C)(C)[C@@H](OC(=O)C(C)C)[C@H](O)[C@@H]1O [compound 8] | 16 (≈ 21.4 µM) | – | 4 to 8 (≈ 5.36 to 10.7 µM) | 263 ± 32 mm2 | 81 ± 12 | – | – | – | – | –
12 | CC[C@H]1/C=C(\C)[C@@H](O)C/C=C/C=C(\CNc2nc(-c3ccccc3)cs2)C(=O)O[C@H]([C@@H](C)O)C/C=C(C)/C=C(\C)[C@@H]1O[C@@H]1OC(C)(C)[C@@H](OC(=O)C(C)C)[C@H](O)[C@@H]1O [compound 13] | 8 (≈ 9.72 µM) | 8 to 16 (≈ 9.72 to 19.4 µM) | 4 (≈ 4.86 µM) | – | – | – | 130 ± 50 | – | – | –
